Reference: US4220644A, “7-Acylamino-3-(substituted tetrazolyl thiomethyl) cephalosporins” (SmithKline Corporation, priority 1976, dated 1980)
In brackets after ≈: the same amount, converted by molar mass. Where two headings read alike, the source gives them in different places.

Tests used:
[1] = system: S. aureus HH 127; assay: MIC in vitro (Table 1), S. aureus HH 127; assay type: cell-based; conditions: Staphylococcus aureus
Excerpt: (§1) Compound names corresponding to numbers are given in the experimental section. For comparative purposes, data for cephamandole, which is 7-mandelamido-3-(1-methyltetrazol-5-ylthiomethyl)-3-cephem-4-carboxylic acid, is also given in Tables 1 and 2.

[2] = system: S. aureus SK 23390; assay: MIC in vitro (Table 1), S. aureus SK 23390; assay type: cell-based; conditions: Staphylococcus aureus
Excerpt: as §1

[3] = system: Strep. Faecalis HH 34358; assay: MIC in vitro (Table 1), Strep. Faecalis HH 34358; assay type: cell-based; conditions: in vitro, Strep. Faecalis HH 34358
Excerpt: as §1

[4] = system: E. coli SK 12140; assay: MIC in vitro (Table 1), E. coli SK 12140; assay type: cell-based; conditions: Escherichia coli, SK12140, in vitro
Excerpt: as §1

[5] = system: E. coli HH 33779; assay: MIC in vitro (Table 1), E. coli HH 33779; assay type: cell-based
Excerpt: as §1

[6] = system: Kleb. pneumo. SK 4200; assay: MIC in vitro (Table 1), Kleb. pneumo. SK 4200; assay type: cell-based
Excerpt: as §1

[7] = system: Kleb. pneumo. SK 1200; assay: MIC in vitro (Table 1), Kleb. pneumo. SK 1200; assay type: cell-based
Excerpt: as §1

[8] = system: Pseudo. sp. HH 63; assay: MIC in vitro (Table 1), Pseudo. sp. HH 63; assay type: cell-based; conditions: in vitro, Pseudo. sp. HH 63; read-out: MIC
Excerpt: as §1, with “The compounds of Formula I have antibacterial activity against both Gram-positive and Gram-negative organisms. […] Compound” for “Compound”

[9] = system: Salmonella ATCC 12176; assay: MIC in vitro (Table 1), Salmonella ATCC 12176; assay type: cell-based
Excerpt: as §1, with “The compounds of Formula I have antibacterial activity against both Gram-positive and Gram-negative organisms. […] Compound” for “Compound”

[10] = system: Shigella HH 117; assay: MIC in vitro (Table 1), Shigella HH 117; assay type: cell-based
Excerpt: as §1, with “The compounds of Formula I have antibacterial activity against both Gram-positive and Gram-negative organisms. […] Compound” for “Compound”

[11] = system: Entero. aerog. ATCC 13048; assay: MIC in vitro (Table 1), Entero. aerog. ATCC 13048; assay type: cell-based
Excerpt: as §1

[12] = system: Serra. Marc. ATCC 13880; assay: MIC in vitro (Table 1), Serra. Marc. ATCC 13880; assay type: cell-based
Excerpt: as §1

[13] = system: Entero. cloacae HH 31254; assay: MIC in vitro (Table 1), Entero. cloacae HH 31254; assay type: cell-based; conditions: Enterobacter cloacae
Excerpt: as §1

[14] = system: Proteus morgani 179; assay: MIC in vitro (Table 1), Proteus morgani 179; assay type: cell-based
Excerpt: as §1

[15] = system: E. coli 12140; assay: In vivo mouse protection (Table 2), E. coli 12140
Excerpt: as §1

[16] = system: Kleb. pneumo. 4200; assay: In vivo mouse protection (Table 2), Kleb. pneumo. 4200
Excerpt: as §1

[17] = HH127, in vitro, S. aureus HH 127, read-out: MIC
[18] = Enterococcus faecalis, read-out: MIC
[19] = Escherichia coli, HH33779, in vitro, E. coli HH 33779, read-out: MIC
[20] = Salmonella, ATCC12176, in vitro, read-out: MIC
[21] = Shigella, HH117, in vitro, read-out: MIC
[22] = in vitro, Serra. Marc. ATCC 13880, read-out: MIC
[23] = Escherichia coli, 12140, po, E. coli 12140, p.o.
[24] = Escherichia coli, 12140, sc, E. coli 12140, s.c.
[25] = SK23390, in vitro, S. aureus SK 23390, read-out: MIC
[26] = in vitro, Kleb. pneumo. SK 4200, read-out: MIC
[27] = HH31254, in vitro, Entero. cloacae HH 31254, read-out: MIC

Row | Structure (SMILES) | MIC [1, 17] | MIC [3, 18] | MIC ([4]; read-out: MIC) | MIC [5, 19] | MIC [6] | MIC [7] | MIC [8] | MIC [9, 20] | MIC [10, 21] | MIC [11] | MIC [12, 22] | MIC ([13]; HH31254) | MIC ([14]; read-out: MIC) | ED50 [15, 23] | ED50 [15, 24] | ED50 ([16]; po, Kleb. pneumo. 4200, p.o.) | ED50 ([16]; sc, Kleb. pneumo. 4200, s.c.) | MIC [2, 25] | MIC [4] | MIC ([7]; read-out: MIC) | other results
1 | CN(C)C(=O)Cn1nnnc1SCC1=C(C(=O)O)N2C(=O)C(NC(=O)[C@H](N)c3ccc(O)cc3)C2SC1 (stereo partly drawn) [IX, 7-(D-α-Amino-4-hydroxyphenylacetamido)-3-(1-N,N-dimethylcarbamoylmethyltetrazol-5-ylthiomethyl)-3-cephem-4-carboxylic acid] | 12.5 µg/mL (≈ 22.8 µM) | 25 µg/mL (≈ 45.6 µM) | 12.5 µg/mL (≈ 22.8 µM) | 12.5 µg/mL (≈ 22.8 µM) | 6.3 µg/mL (≈ 11.5 µM) | 6.3 µg/mL (≈ 11.5 µM) | > 200 µg/mL | 3.1 µg/mL (≈ 5.65 µM) | 6.3 µg/mL (≈ 11.5 µM) | 12.5 µg/mL (≈ 22.8 µM) | 200 µg/mL (≈ 365 µM) | 3.1 µg/mL (≈ 5.65 µM) | 100 µg/mL (≈ 182 µM) | 28.5 mg/kg | 1.56 mg/kg | 18 mg/kg | 3.7 mg/kg |  |  |  | MIC ([2]; SK23390): 6.3 µg/mL (≈ 11.5 µM)
2 | NC(=O)CCn1nnnc1SCC1=C(C(=O)O)N2C(=O)C(NC(=O)[C@H](O)c3ccccc3)[C@H]2SC1 (stereo partly drawn) [VII, 7-D-Mandelamido-3-[1-(2-carbamoylethyl)tetrazol-5-ylthiomethyl]-3-cephem-4-carboxylic acid] |  | 12.5 µg/mL (≈ 24.1 µM) | 0.8 µg/mL (≈ 1.54 µM) | 1.6 µg/mL (≈ 3.08 µM) | 0.4 µg/mL (≈ 0.77 µM) |  | > 200 µg/mL | 0.2 µg/mL (≈ 0.385 µM) | 0.2 µg/mL (≈ 0.385 µM) |  | 50 µg/mL (≈ 96.2 µM) | 0.4 µg/mL (≈ 0.77 µM) | 1.6 µg/mL (≈ 3.08 µM) | 25 mg/kg | 0.86 mg/kg | 17 mg/kg | 0.78 mg/kg | 0.8 µg/mL (≈ 1.54 µM) | 0.4 µg/mL (≈ 0.77 µM) | 0.8 µg/mL (≈ 1.54 µM) | MIC ([2]; SK23390): 0.4 µg/mL (≈ 0.77 µM); MIC [3]: 25 µg/mL (≈ 48.1 µM); MIC ([5]; in vitro, E. coli HH 33779): 3.1 µg/mL (≈ 5.97 µM); MIC [6, 26]: 0.8 µg/mL (≈ 1.54 µM); MIC ([10]; in vitro): 0.4 µg/mL (≈ 0.77 µM); MIC [12]: 6.3 µg/mL (≈ 12.1 µM); MIC [13, 27]: 1.6 µg/mL (≈ 3.08 µM); MIC [14]: 0.8 µg/mL (≈ 1.54 µM)
3 | O=C(O)CCn1nnnc1SCC1=C(C(=O)O)N2C(=O)C(NC(=O)[C@H](O)c3ccccc3)[C@H]2SC1 (stereo partly drawn) [VIII, 7-D-Mandelamido-3-[1-(2-carboxyethyl)tetrazol-5-ylthiomethyl]-3-cephem-4-carboxylic acid] | 1.6 µg/mL (≈ 3.07 µM) | 50 µg/mL (≈ 96.1 µM) | 1.6 µg/mL (≈ 3.07 µM) |  |  | 0.8 µg/mL (≈ 1.54 µM) | > 200 µg/mL | 0.8 µg/mL (≈ 1.54 µM) | 0.8 µg/mL (≈ 1.54 µM) | 3.1 µg/mL (≈ 5.96 µM) | 50 µg/mL (≈ 96.1 µM) | 3.1 µg/mL (≈ 5.96 µM) | 6.3 µg/mL (≈ 12.1 µM) | 50 mg/kg | 0.86 mg/kg | 25 mg/kg | 0.46 mg/kg |  | 0.4 µg/mL (≈ 0.768 µM) | 1.6 µg/mL (≈ 3.07 µM) | MIC ([1]; HH127): 3.1 µg/mL (≈ 5.96 µM); MIC [3]: 100 µg/mL (≈ 192 µM); MIC ([6]; in vitro, Kleb. pneumo. SK 4200): 1.6 µg/mL (≈ 3.07 µM); MIC [6, 26]: 0.8 µg/mL (≈ 1.54 µM); MIC ([9]; in vitro): 0.4 µg/mL (≈ 0.768 µM); MIC [12]: 12.5 µg/mL (≈ 24 µM); MIC ([12]; in vitro, Serra. Marc. ATCC 13880): 100 µg/mL (≈ 192 µM)
4 | NC(=O)CCn1nnnc1SCC1=C(C(=O)O)N2C(=O)C(NC(=O)[C@H](N)c3ccc(O)cc3)[C@H]2SC1 (stereo partly drawn) [X, 7-(D-α-Amino-4-hydroxyphenylacetamido)-3-[1-(2-carbamoylethyl)tetrazol-5-ylthiomethyl]-3-cephem-4-carboxylic acid] |  | 25 µg/mL (≈ 46.8 µM) |  |  | 1.6 µg/mL (≈ 2.99 µM) |  | > 200 µg/mL | 0.8 µg/mL (≈ 1.5 µM) | 1.6 µg/mL (≈ 2.99 µM) |  |  | 1.6 µg/mL (≈ 2.99 µM) | 25 µg/mL (≈ 46.8 µM) | 25 mg/kg | 0.78 mg/kg | 15.6 mg/kg | 0.62 mg/kg | 12.5 µg/mL (≈ 23.4 µM) | 1.6 µg/mL (≈ 2.99 µM) | 3.1 µg/mL (≈ 5.8 µM) | MIC ([1]; HH127): 6.3 µg/mL (≈ 11.8 µM); MIC ([5]; Escherichia coli, HH33779): 1.6 µg/mL (≈ 2.99 µM)
5 | NC(=O)CCCn1nnnc1SCC1=C(C(=O)O)N2C(=O)C(NC(=O)CSC(F)(F)F)[C@H]2SC1 (some centres unmarked) [XX, 7-Trifluoromethylmercaptoacetamido-3-[1-(3-carbamoylpropyl)tetrazol-5-ylthiomethyl]-3-cephem-4-carboxylic acid] | 0.4 µg/mL (≈ 0.739 µM) | 6.3 µg/mL (≈ 11.6 µM) | 0.8 µg/mL (≈ 1.48 µM) | 0.8 µg/mL (≈ 1.48 µM) | 0.4 µg/mL (≈ 0.739 µM) | 0.4 µg/mL (≈ 0.739 µM) | > 200 µg/mL | 0.2 µg/mL (≈ 0.369 µM) | 0.2 µg/mL (≈ 0.369 µM) | 3.1 µg/mL (≈ 5.72 µM) |  |  | 12.5 µg/mL (≈ 23.1 µM) | 21.5 mg/kg | 0.7 mg/kg |  |  | 0.2 µg/mL (≈ 0.369 µM) |  |  | MIC [13, 27]: 0.8 µg/mL (≈ 1.48 µM)
